System: DSS induced colitis
Assay: Dextran Sulfate Sodium (DSS) Induced Colitis
Type: in vivo, Balb/c female mice and C57Black/6 mice
From the text: In Vivo Model for Colitis: Dextran Sulfate Sodium (DSS) Induced Colitis Inflammatory bowel diseases such as ulcerative colitis and Crohn's disease are characterized by diminished intestinal barrier function, apparent inflammatory damage that may include erosive loss of intestinal mucosa, and inflammatory infiltrates in the mucosa and submucosa. […] Among the many possible chemicals used are dextran sulfate sodium (DSS) and trinitrobenzene sulfonic acid (TNBS). The dextran sulfate sodium model of experimental colitis is characterized by a shrinkage of the colon's length, macrosopic inflammatory damage, diarrhea, a discontinuous pattern of mucosal epithelial damage in the distal colon with infiltration of inflammatory cells that include macrophages and neutrophils into the mucosa and submucosa (Blumberg, R. S., Saubermann, L. J., and Strober, W. Animal models of mucosal inflammation and their relation to human inflammatory bowel disease. Current Opinion in Immunology, 11: 648-656, 1999; […]., and Nakaya, R. A novel method of induction of reliable experimental acute and chronic colitis in mice. […] Cooper, […]., and […]. Clinicopathologic study of dextran sulfate sodium experimental murine colitis. Lab Invest., 69: 238-249, 1993; […]., Bajaj-Elliott, M., MacDonald, […]., and Buchler, M. W. Characterization of acute murine dextran sodium sulphate colitis: Cytokine profile and dose dependency. Digestion, 62: 240-248, 2000; […]., Husband, A. J., and Doe, W. F. The inflammatory infiltrate in the acute stage of the dextran sulphate sodium induced colitis: B cell response differs depending on the percentage of DSS used to induce it. BMC Clinical Pathology, 1: 3-13, 2001; and Diaz-Granados, Howe, K., Lu, J, and […]. Dextran sulfate sodium-induced colonic histopathology, but not altered epithelial ion transport, is reduced by inhibition of phosphodiesterase activity. Amer. J. Pathology, 156: 2169-2177, 2000). Balb/c female mice and […]/6 mice were used in these studies. […] When […]/6 mice were used, a solution of tap water containing 4% DSS was used. During the ensuing 7-day period, test animals were administered a preparation of an experimental compound. This material may be administered orally or intraperitoneally or subcutaneously, once or twice daily. At the end of this period, the animals were euthanized and their colons were collected for further analysis. Among the parameters analyzed were the length of the colon starting from the anus to the top of the cecum, the consistency of any stools found within the colon, and the gross macroscopic appearance of the colon. The distal colon between the 1st and the 4th centimeter was removed and placed in 10% neutral buffered formalin for later histological analysis. For the following parameters, colon length, stool consistency and appearance, and macroscopic damage a scoring system is used to describe the changes. […] Thus, […] Histological analyses of tissues consisted of staining paraffin-embedded tissue sections with hematoxylin-eosin dye. Epithelial damage scores were determined as the fraction of the tissue section showing damaged epithelium. […] Statistical analysis performed in Graphpad Prism 4.0 using ANOVA with Dunnet's or Bonferroni's multiple comparison's test.

[1] = 10 mg/kg sc bid, C57 Black/6 mice
[2] = 30 mg/kg sc bid, C57 Black/6 mice

COc1cnn(C)c(=O)c1-c1ccc(C[C@H](NC(=O)c2c(Cl)cccc2Cl)C(=O)O)cc1 [Cpd 17]
% Inhibition of Epithelial Damage Score (3 mg/kg sc bid, balb/c mice): 61.11% | % Inhibition of Total Macroscopic Score (3 mg/kg sc bid, balb/c mice): 32.95% | % Inhibition of Epithelial Damage Score [1]: 33.3% | % Inhibition of Total Macroscopic Score [1]: −7.2% | % Inhibition of Epithelial Damage Score (10 mg/kg sc bid, balb/c mice): 56.3% | % Inhibition of Total Macroscopic Score (10 mg/kg sc bid, balb/c mice): 30.6% | % Inhibition of Epithelial Damage Score [2]: 50% | % Inhibition of Total Macroscopic Score [2]: 11.2% | % Inhibition of Epithelial Damage Score (30 mg/kg sc bid, balb/c mice): 78.1% | % Inhibition of Total Macroscopic Score (30 mg/kg sc bid, balb/c mice): −32.8%

Source: US20050192279A1, “Pyridazinones as antagonists of alpha4 integrins” (priority 2004, published 2005)
